Data as given in patent US10159249B2 (BAYER CROPSCIENCE AKTIENGESELLSCHAFT, priority 2013, dated 2018).
Where two headings read alike, the source gives them in different places.

Assays:
FMP37 (SEQ ID No 9) = FMP37 (SEQ ID No 9) (Blepharisma japonicum, UniProt A8R3H6); assay: HPPD activity in presence of inhibitor, HGD assay; format: biochemical
Protocol: (§1) With the HGD assay HPPD activity was measured at room temperature by adding appropriate amounts of HPPD to a solution of 200 mM Tris-HCl pH 7.6, 10 mM ascorbate, 20 μM FeSO4, 650 units of catalase, 8 μg HGA dioxygenase (HGA: homogentisate) and 600 μM HPP in a total volume of 1 ml. Initial reaction rates were determined from the increase in absorbance at 318 nm due to the formation of maleylacetoacetate (ε318=11,900 M-1 cm-1).
(§2) In cases, the symbol “>” is used this means that the value was far higher than the one indicated but could not be precisely calculated within in the range of concentration of inhibitor tested.
(§3) In the 1st column of Table 1, the HPPD employed in the assay is named and in the 2nd column of Table 1, the corresponding SEQ ID No of present invention is disclosed.

[1] = target: Avena sativa Δ A109 (SEQ ID No 43) (Avena sativa, UniProt A0ACD5V6K6, DEL109-109); assay: HPPD activity in presence of inhibitor, HGD assay; format: biochemical
Chain of Avena sativa Δ A109 (SEQ ID No 43) (A0ACD5V6K6 entry or part of it DEL109-109): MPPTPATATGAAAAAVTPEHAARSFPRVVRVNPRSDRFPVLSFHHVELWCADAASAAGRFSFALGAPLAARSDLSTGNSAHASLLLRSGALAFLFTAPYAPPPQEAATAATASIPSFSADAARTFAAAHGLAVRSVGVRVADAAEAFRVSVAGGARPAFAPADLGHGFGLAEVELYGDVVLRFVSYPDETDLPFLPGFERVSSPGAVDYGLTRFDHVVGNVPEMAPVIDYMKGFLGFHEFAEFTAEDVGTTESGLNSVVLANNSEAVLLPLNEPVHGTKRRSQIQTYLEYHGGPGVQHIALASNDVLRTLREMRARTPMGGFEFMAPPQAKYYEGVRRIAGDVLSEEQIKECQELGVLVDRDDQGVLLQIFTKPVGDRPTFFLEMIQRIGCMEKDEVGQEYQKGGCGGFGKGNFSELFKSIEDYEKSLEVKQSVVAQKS
Protocol: as §1, §2, §3

FMP27 (SEQ ID No 17) = FMP27 (SEQ ID No 17) (Kordia algicida, UniProt A9DQF2); assay: HPPD activity in presence of inhibitor, HGD assay; format: biochemical
Chain of FMP27 (SEQ ID No 17) (A9DQF2 1-387): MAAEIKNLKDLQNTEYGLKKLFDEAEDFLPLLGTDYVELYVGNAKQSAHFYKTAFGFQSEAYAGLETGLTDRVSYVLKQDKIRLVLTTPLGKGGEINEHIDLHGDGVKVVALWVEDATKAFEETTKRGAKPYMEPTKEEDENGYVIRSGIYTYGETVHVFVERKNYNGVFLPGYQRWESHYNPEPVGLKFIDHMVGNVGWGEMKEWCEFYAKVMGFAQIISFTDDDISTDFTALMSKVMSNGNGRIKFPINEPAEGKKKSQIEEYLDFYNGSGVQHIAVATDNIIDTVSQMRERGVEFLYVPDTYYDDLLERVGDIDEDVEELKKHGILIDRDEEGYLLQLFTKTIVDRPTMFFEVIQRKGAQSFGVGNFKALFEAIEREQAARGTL
Protocol: as §1, §2, §3

[2] = tested on: wild type soybean plants (Merlin and Thorne); format: in vivo; settings: 21 days after spraying
[3] = tested on: Non-transformed maize plants; assay: Greenhouse trial, maize plants, leaf damage; format: in vivo; settings: 25 g AI/ha
Protocol: Regenerated T0 events from tissue culture were transplanted into two inch square pots with synthetic soil (Fafard® Mix) and controlled-released fertilizer (Haifa Multicote™; polymer-coated controlled-release fertilizer, NPK Pro 18-6-12+Micronutrients) and cultivated in the greenhouse (GH) under supplementary high pressure sodium light for 12 days at a maximum of 30° C. during the day and a minimum of 22° C. at night. Fully recovered plants were transferred into five inch square pots filled with synthetic soil and control released fertilizer under the same environmental conditions. […] All herbicide treatments were conducted in a DeVries Tracker Sprayer system with standard application protocols, which are well known in the art. As a spray control T0 events have been sprayed with the adjunvant mixture lacking the herbicide.

wild type soybean Merlin = format: in vivo; settings: scored after 21 days
[4] = target: PfHPPD-Evo40 (SEQ ID No 27) (Pseudomonas sp., UniProt P80064, A172V/A339E/A53E/D148E/D45N/E105D/E287Q/E300V/E334P/F143Y/G286D/G335S/H150N/H254A/H63N/I158V/I187A/I249V/K92N/L18F/N24G/N280D/S245T/S257K/S301E/T205S/V65I); assay: biochemical; design: species or system Pseudomonas fluorescens
Chain of PfHPPD-Evo40 (SEQ ID No 27) (P80064 1-354 with tags or gaps with the stated changes limits assumed): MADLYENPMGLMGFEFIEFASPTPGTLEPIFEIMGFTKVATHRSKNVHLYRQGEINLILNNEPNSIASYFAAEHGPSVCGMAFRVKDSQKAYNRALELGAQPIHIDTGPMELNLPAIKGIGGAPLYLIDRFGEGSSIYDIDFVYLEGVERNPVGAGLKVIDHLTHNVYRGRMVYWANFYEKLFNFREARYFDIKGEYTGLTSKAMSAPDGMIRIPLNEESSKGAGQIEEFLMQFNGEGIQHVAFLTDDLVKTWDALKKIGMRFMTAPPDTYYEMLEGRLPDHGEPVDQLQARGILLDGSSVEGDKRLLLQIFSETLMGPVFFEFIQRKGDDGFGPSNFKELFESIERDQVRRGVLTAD

wild type soybean Thorne = format: in vivo; settings: scored after 21 days
[5] = target: PfHPPD-Evo33 (SEQ ID No 25) (Pseudomonas sp., UniProt P80064, A172V/A53E/D148E/D45N/E105D/E287Q/E300V/E334P/F143Y/G286D/G335W/H150N/H254A/H63N/I158V/I187A/I249V/K92N/L18F/N24G/N280D/S245T/S257K/S301E/T205S/V65I); assay: biochemical; design: species or system Pseudomonas fluorescens
Chain of PfHPPD-Evo33 (SEQ ID No 25) (P80064 1-354 with tags or gaps with the stated changes limits assumed): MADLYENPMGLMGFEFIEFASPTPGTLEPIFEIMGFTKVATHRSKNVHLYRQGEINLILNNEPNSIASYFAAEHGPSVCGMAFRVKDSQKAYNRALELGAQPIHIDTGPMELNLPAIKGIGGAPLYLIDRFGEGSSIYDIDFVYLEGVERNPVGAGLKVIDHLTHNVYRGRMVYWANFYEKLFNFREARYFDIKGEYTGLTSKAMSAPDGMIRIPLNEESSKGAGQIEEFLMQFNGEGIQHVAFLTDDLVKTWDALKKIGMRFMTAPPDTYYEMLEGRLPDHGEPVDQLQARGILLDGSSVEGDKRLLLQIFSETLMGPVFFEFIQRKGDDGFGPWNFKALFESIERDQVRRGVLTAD

Axmi309H (SEQ ID No 35) = assay: HPPD activity in presence of inhibitor, HGD assay; format: biochemical, Pseudomonas agarici
Protocol: as §1, §2, §3

[6] = tested on: Axmi309H-Evo41 (SEQ ID No 37); assay: HPPD activity in presence of inhibitor, HGD assay; format: biochemical, Pseudomonas agarici
Protocol: as §1, §2, §3

[7] = tested on: transgenic soybean T1 plants expressing PfHPPD-Evo33; format: in vivo; settings: for number of events, herbicide tolerance class 0 (41%-100% damaged leaf area) / number of events, herbicide tolerance class 1 (16%-40% damaged leaf area) / number of events, herbicide tolerance class 2 (6%-15% damaged leaf area) / number of events, herbicide tolerance class 3 (0%-5% damaged leaf area): soybean PfHPPD-Evo33, scored after 21 days
[8] = tested on: Ipomoea aristolochiaefolia; settings: application at 6 leaf stage, assessment 14 days after application
FMP22 (SEQ ID No 11) = FMP22 (SEQ ID No 11) (Rhodococcus jostii, UniProt A0ABU4CPN1); assay: HPPD activity in presence of inhibitor, HGD assay; format: biochemical, Rhodococcus sp. (strain RHA1), isolate ro03041; settings: 0.2 μM inhibitor
Chain of FMP22 (SEQ ID No 11) (A0ABU4CPN1 1-401): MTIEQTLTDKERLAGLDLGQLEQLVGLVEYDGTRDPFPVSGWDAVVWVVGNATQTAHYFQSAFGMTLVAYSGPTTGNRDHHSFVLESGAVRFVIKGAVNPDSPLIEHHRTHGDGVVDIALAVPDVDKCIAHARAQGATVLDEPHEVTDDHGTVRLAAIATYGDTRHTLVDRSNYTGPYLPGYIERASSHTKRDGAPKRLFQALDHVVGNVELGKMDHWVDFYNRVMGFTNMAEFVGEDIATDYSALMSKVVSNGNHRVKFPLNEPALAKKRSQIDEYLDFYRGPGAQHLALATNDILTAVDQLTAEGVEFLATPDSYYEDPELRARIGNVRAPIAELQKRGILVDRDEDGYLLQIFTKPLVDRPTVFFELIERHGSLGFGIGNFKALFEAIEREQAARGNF
Protocol: as §1, §2, §3

Euphorbia heterophylla = assay: Field trial, weed efficacy, post applied; format: in vivo; settings: application at 5 leaf stage, assessment 14 days after application
[9] = soybean Merlin (wt), 6.25 g AI/ha
[10] = soybean Thorne (wt), 6.25 g AI/ha
[11] = room temperature, 600 μM HPP, molar concentration

Chain of FMP37 (SEQ ID No 9) (A8R3H6 1-382): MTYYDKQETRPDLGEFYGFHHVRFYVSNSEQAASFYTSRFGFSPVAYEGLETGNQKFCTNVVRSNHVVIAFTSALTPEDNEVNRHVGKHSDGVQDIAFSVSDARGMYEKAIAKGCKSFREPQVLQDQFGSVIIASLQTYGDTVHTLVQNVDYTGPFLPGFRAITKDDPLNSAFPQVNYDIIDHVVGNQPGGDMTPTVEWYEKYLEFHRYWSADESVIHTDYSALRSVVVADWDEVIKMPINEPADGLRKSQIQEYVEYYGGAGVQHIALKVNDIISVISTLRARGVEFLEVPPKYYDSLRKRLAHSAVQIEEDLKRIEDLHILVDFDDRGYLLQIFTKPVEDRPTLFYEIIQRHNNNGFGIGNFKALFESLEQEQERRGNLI

CSc1c(C(F)(F)F)ccc(C(=O)Nc2nnnn2C)c1Cl
IC50 (FMP37 (SEQ ID No 9)): 5010 nM | inhibition at 0.2 µM (FMP37 (SEQ ID No 9); 0.2 μM inhibitor, HGD assay): 0% | IC50 [1]: 2000 nM | inhibition at 0.2 µM ([1]; 0.2 μM inhibitor, HGD assay): 8% | IC50 (FMP27 (SEQ ID No 17)): 316 nM | inhibition at 0.2 µM (FMP27 (SEQ ID No 17); 0.2 μM inhibitor, HGD assay): 29% | bleaching of the total leaf area ([2]; 6.25 g of AI/ha): 45%-50% | damaged leaf area ([2]; 25 g of AI/ha): 90-100% | leaf damage [3]: 100% | number of events, herbicide tolerance class 0 (41%-100% damaged leaf area) (wild type soybean Merlin; [9]): 4 | number of events, herbicide tolerance class 1 (16%-40% damaged leaf area) (wild type soybean Merlin; [9]): 0 | number of events, herbicide tolerance class 2 (6%-15% damaged leaf area) (wild type soybean Merlin; [9]): 0 | number of events, herbicide tolerance class 3 (0%-5% damaged leaf area) (wild type soybean Merlin; [9]): 0 | number of events, herbicide tolerance class 0 (41%-100% damaged leaf area) (wild type soybean Merlin; soybean Merlin, 25 g AI/ha): 4 | number of events, herbicide tolerance class 1 (16%-40% damaged leaf area) (wild type soybean Merlin; soybean Merlin, 25 g AI/ha): 0 | number of events, herbicide tolerance class 2 (6%-15% damaged leaf area) (wild type soybean Merlin; soybean Merlin, 25 g AI/ha): 0 | number of events, herbicide tolerance class 3 (0%-5% damaged leaf area) (wild type soybean Merlin; soybean Merlin, 25 g AI/ha): 0 | IC50 [4]: 251 nM | % inhibition at 0.2 μM ([4]; 0.2 μM inhibitor, HGD assay): 40% | number of events, herbicide tolerance class 0 (41%-100% damaged leaf area) (wild type soybean Thorne; [10]): 4 | number of events, herbicide tolerance class 1 (16%-40% damaged leaf area) (wild type soybean Thorne; [10]): 0 | number of events, herbicide tolerance class 2 (6%-15% damaged leaf area) (wild type soybean Thorne; [10]): 0 | number of events, herbicide tolerance class 3 (0%-5% damaged leaf area) (wild type soybean Thorne; [10]): 0 | number of events, herbicide tolerance class 0 (41%-100% damaged leaf area) (wild type soybean Thorne; soybean Thorne, 25 g AI/ha): 4 | number of events, herbicide tolerance class 1 (16%-40% damaged leaf area) (wild type soybean Thorne; soybean Thorne, 25 g AI/ha): 0 | number of events, herbicide tolerance class 2 (6%-15% damaged leaf area) (wild type soybean Thorne; soybean Thorne, 25 g AI/ha): 0 | number of events, herbicide tolerance class 3 (0%-5% damaged leaf area) (wild type soybean Thorne; soybean Thorne, 25 g AI/ha): 0 | IC50 [5]: 251 nM | % inhibition at 0.2 μM ([5]; 0.2 μM inhibitor, HGD assay): 39% | % inhibition at 0.2 μM (Axmi309H (SEQ ID No 35); 0.2 μM inhibitor): 78% | pI50 (Axmi309H (SEQ ID No 35); [11]): 7.1 | % inhibition at 0.2 μM ([6]; 0.2 μM inhibitor): 26% | pI50 [6, 11]: 6.5 | herbicide tolerance ([7]; most soybean T1 plants expressing PfHPPD-Evo33, 25 g AI/ha): high tolerance | number of events, herbicide tolerance class 0 (41%-100% damaged leaf area) ([7]; 6.25 g AI/ha): 1 | number of events, herbicide tolerance class 1 (16%-40% damaged leaf area) ([7]; 6.25 g AI/ha): 0 | number of events, herbicide tolerance class 2 (6%-15% damaged leaf area) ([7]; 6.25 g AI/ha): 0 | number of events, herbicide tolerance class 3 (0%-5% damaged leaf area) ([7]; 6.25 g AI/ha): 11 | number of events, herbicide tolerance class 0 (41%-100% damaged leaf area) ([7]; 25 g AI/ha): 1 | number of events, herbicide tolerance class 1 (16%-40% damaged leaf area) ([7]; 25 g AI/ha): 0 | number of events, herbicide tolerance class 2 (6%-15% damaged leaf area) ([7]; 25 g AI/ha): 2 | number of events, herbicide tolerance class 3 (0%-5% damaged leaf area) ([7]; 25 g AI/ha): 13 | number of events, herbicide tolerance class 0 (41%-100% damaged leaf area) ([7]; 50 g AI/ha): 0 | number of events, herbicide tolerance class 1 (16%-40% damaged leaf area) ([7]; 50 g AI/ha): 4 | number of events, herbicide tolerance class 2 (6%-15% damaged leaf area) ([7]; 50 g AI/ha): 0 | number of events, herbicide tolerance class 3 (0%-5% damaged leaf area) ([7]; 50 g AI/ha): 0 | number of events, herbicide tolerance class 0 (41%-100% damaged leaf area) ([7]; 75 g AI/ha): 0 | number of events, herbicide tolerance class 1 (16%-40% damaged leaf area) ([7]; 75 g AI/ha): 4 | number of events, herbicide tolerance class 2 (6%-15% damaged leaf area) ([7]; 75 g AI/ha): 0 | number of events, herbicide tolerance class 3 (0%-5% damaged leaf area) ([7]; 75 g AI/ha): 0 | Efficacy (%) Ipomoea aristolochiaefolia ([8]; (A) 25 g ai/ha): 10% | Efficacy (%) Ipomoea aristolochiaefolia ([8]; (A) 50 g ai/ha): 15% | inhibition at 0.2 µM (FMP22 (SEQ ID No 11)): 0% | Efficacy (%) Euphorbia heterophylla (Euphorbia heterophylla; (A) 25 g ai/ha): 15% | Efficacy (%) Euphorbia heterophylla (Euphorbia heterophylla; (A) 75 g ai/ha): 35%
